We go through 72 compounds from the RepoRT retention time repository.

Molecules are shown by their SMILES.

A short description of this series: Thermo Scientific Acclaim RSLC 120 C18, 100 × 2.1 mm, 2.2 µm, 30 °C, 0.2 to 0.48 mL/min, estimated dead time 1.1 min; A: 90% water + 10% methanol + 5 mM ammonium acetate; B: methanol + 5 mM ammonium acetate; gradient (min/%B) 0.1/1 3/39 14/99.9 16/99.9. Conditions: stereoisomer not certain.
As for `O=C(O)c1cc(-c2ccccc2)nc2ccccc12`, the LC retention time was 5.89 min.

Consider `COC(=O)C(C)=COP(=S)(OC)OC`, for which the LC retention time is 5.12 min.

Consider `CC(C)(C)c1cc([N+](=O)[O-])cc([N+](=O)[O-])c1O`, for which the LC retention time is 8.13 min.

Turning to `CCCN(CCC)S(=O)(=O)c1ccc(C(=O)O)cc1`, the LC retention time was 6.46 min.

With `CCc1ccc(CCOc2ccc(CC3SC(=O)NC3=O)cc2)nc1` (configuration not stated), the LC retention time was 10.6 min.

For the compound `CC1CC2(C)C(CCC3C4CCC(O)C4(C)CCC32)CC1=O` (configuration not stated), the LC retention time is 14.4 min.

In the case of `CCCc1nc2c(C)cc(-c3nc4ccccc4n3C)cc2n1Cc1ccc(-c2ccccc2C(=O)O)cc1`, the LC retention time is 11.2 min.

Consider `CC(N)C12CC3CC(CC(C3)C1)C2` (configuration not stated), for which the LC retention time was 3.19 min.

Regarding `CCCCN1CCCCC1C(=O)Nc1c(C)cccc1C` (configuration not stated), the LC retention time was 10.7 min.

As for `CCC1(c2ccccc2)C(=O)NC(=O)NC1=O`, the LC retention time was 6.1 min.

As to `CCOc1ccc(NC(=O)OC(C)C)cc1OCC`, the LC retention time was 9.01 min.

Consider `CC(NC(=O)C(N)CC(=O)O)C(=O)NC1C(C)(C)SC1(C)C` (configuration not stated), for which the LC retention time is 6.06 min.

With `COC1CCC(OC2CC(C3OC(C)(O)C(C)CC3C)OC2C2(C)CCC(C3(C)CCC4(CC(O)C(C)C(C(C)C5OC(O)(CC(=O)O)C(C)C(O)C5OC)O4)O3)O2)OC1C` (configuration not stated), the LC retention time is 13.7 min.

As for `COCCN(C(=O)CS(=O)(=O)O)c1c(C)cccc1C`, the LC retention time is 6.16 min.

Take `S=c1[nH]c2ccccc2s1`: the LC retention time was 6.58 min.

For `CSc1nc(N=[N+]=[N-])nc(NC(C)C)n1`, the LC retention time was 9.67 min.

For `CC12CCC(O)CC1CCC1C2CCC2(C)C1CCC2(C)O` (configuration not stated), the LC retention time is 14 min.

Take `CNCC(c1ccc(OC)cc1)C1(O)CCCCC1` (configuration not stated): the LC retention time was 6.12 min.

Turning to `Nc1ncn[nH]1`, the LC retention time is 1.67 min.

For `CC(C(=O)O)c1cccc(Oc2ccccc2)c1` (configuration not stated), the LC retention time was 6.79 min.

For the compound `CC12CCC3c4ccc(O)cc4CCC3C1CC(O)C2O` (configuration not stated), the LC retention time was 7.82 min.

Regarding `CC(=O)Nc1ccc(S(=O)(=O)Nc2cc(C)on2)cc1`, the LC retention time is 4.33 min.

As to `CNC(=O)ON=C(C)C(C)S(C)(=O)=O` (configuration not stated), the LC retention time is 3.67 min.

Turning to `CC1=C(C(=O)Nc2ccccc2)SCCO1`, the LC retention time was 7.42 min.

`O=C(Nc1ccccc1)Nc1cnns1`: the LC retention time was 7.12 min.

Take `COC(=O)C1CC2=CC(=O)CCC2(C)C23OC2CC2(C)C(CCC24CCC(=O)O4)C13` (configuration not stated): the LC retention time is 6.74 min.

On to `CC1(C)SC2C(NC(=O)C(N)c3ccccc3)C(=O)N2C1C(=O)O` (configuration not stated), for which the LC retention time was 4.46 min.

As for `Cc1ccc2n[nH]nc2c1`, the LC retention time is 6.56 min.

Take `CC(C)N(C(=O)CS(=O)(=O)O)c1ccccc1`: the LC retention time is 6.01 min.

As for `COC1CC(OC2C(C)OC(OC3C(C)=CCC4CC(CC5(C=CC(C)C(C(C)C)O5)O4)OC(=O)C4C=C(C)C(O)C5OCC(=CC=CC3C)C45O)CC2OC)OC(C)C1O` (configuration not stated), the LC retention time is 13.4 min.

For the compound `CCOc1cc(CC(=O)NC(CC(C)C)c2ccccc2N2CCCCC2)ccc1C(=O)O` (configuration not stated), the LC retention time was 12.8 min.

Take `CCOP(=S)(NC(C)CC)Oc1cc(C)ccc1[N+](=O)[O-]` (configuration not stated): the LC retention time was 11.2 min.

On to `O=c1nccc[nH]1`, for which the LC retention time was 5.01 min.

Take `COC(=O)c1ccc(C)cc1C1=NC(C)(C(C)C)C(=O)N1` (configuration not stated): the LC retention time was 7.15 min.

Consider `O=S(=O)(O)NC1CCCCC1`, for which the LC retention time was 4.12 min.

Consider `CN(C)S(=O)(=O)Nc1ccccc1`, for which the LC retention time was 7.14 min.

For the compound `CCC1OC(=O)C(C)C(OC2CC(C)(OC)C(O)C(C)O2)C(C)C(OC2OC(C)CC(N(C)C)C2O)C(C)(O)CC(C)C(=NOCOCCOC)C(C)C(O)C1(C)O` (configuration not stated), the LC retention time was 11.5 min.

In the case of `CC(C(=O)O)c1ccc(C2CCCCC2)c2ccccc12` (configuration not stated), the LC retention time was 11.2 min.

Regarding `Oc1ccc(C=Cc2cc(O)cc(O)c2)cc1`, the LC retention time is 6.82 min.

In the case of `CC(C)NCC(O)COc1ccc(CC(=O)O)cc1` (configuration not stated), the LC retention time is 3.58 min.

For `CCOP(=S)(OCC)Oc1cnccn1`, the LC retention time was 8.03 min.

As to `COc1ccc(Oc2ccc(NC(=O)N(C)C)cc2)cc1`, the LC retention time is 8.39 min.

Take `C=C(c1ccc(C(=O)O)cc1)c1cc2c(cc1C)C(C)(C)CCC2(C)C`: the LC retention time was 14.1 min.

`CC(=O)Nc1ccc(S(=O)(=O)Nc2ncccn2)cc1`: the LC retention time was 3.76 min.

With `CCNC1CC(C)S(=O)(=O)c2sc(S(N)(=O)=O)cc21` (configuration not stated), the LC retention time is 4.63 min.

Consider `CC(C)Nc1nc(NC(C)C)[nH]c(=O)n1`, for which the LC retention time was 8.19 min.

Turning to `COc1ccc2cc(CCC(C)=O)ccc2c1`, the LC retention time is 8.54 min.

With `CNC(=C[N+](=O)[O-])NCCSCc1ccc(C[N+](C)(C)[O-])o1`, the LC retention time was 3.98 min.

Consider `CC(C(=O)O)c1ccc(C(=O)c2cccs2)cc1` (configuration not stated), for which the LC retention time is 8.96 min.

For the compound `CC(C)(C)NCC(O)COc1cccc2c1CC(O)C(O)C2` (configuration not stated), the LC retention time is 5.12 min.

As to `CC[N+]([O-])(CC)CC(=O)Nc1c(C)cccc1C`, the LC retention time was 6.56 min.

With `CC(C(=O)O)c1ccc(N2Cc3ccccc3C2=O)cc1` (configuration not stated), the LC retention time was 6.23 min.

`CCc1cccc(C)c1N(C(=O)CS(=O)(=O)O)C(C)COC` (configuration not stated): the LC retention time was 8.19 min.

With `CCC(C)c1cc([N+](=O)[O-])cc([N+](=O)[O-])c1O` (configuration not stated), the LC retention time is 7.92 min.

For `CC(C)(C)NCC(O)c1cc(O)cc(O)c1` (configuration not stated), the LC retention time was 3.48 min.

With `CCCCc1c(C)nc(N(C)C)[nH]c1=O`, the LC retention time is 7.97 min.

For the compound `CC(C)N(C(=O)C(=O)O)c1ccccc1`, the LC retention time was 5.57 min.

For the compound `CCc1ccc(C(=O)NN(C(=O)c2cc(C)cc(C)c2)C(C)(C)C)cc1`, the LC retention time is 10.4 min.

As to `COC(=O)c1ccccc1S(=O)(=O)NC(=O)Nc1nc(C)nc(OC)n1`, the LC retention time is 4.51 min.

Take `CC1=CC(=O)NS(=O)(=O)O1`: the LC retention time was 2.34 min.

As to `COP(=O)(NC(C)=O)SC` (configuration not stated), the LC retention time was 3.09 min.

As to `CCC1(c2cccc(O)c2)CCCCN(C)C1` (configuration not stated), the LC retention time is 6.47 min.

In the case of `COCc1cnc(C2=NC(C)(C(C)C)C(=O)N2)c(C(=O)O)c1` (configuration not stated), the LC retention time was 3.74 min.

Take `CC12C=CC3=C4CCC(=O)C=C4CCC3C1CCC2O` (configuration not stated): the LC retention time was 9.17 min.

In the case of `Cc1nnc(-c2ccccc2)c(=O)[nH]1`, the LC retention time was 5.72 min.

Consider `C=CCC1(C(C)C#CCC)C(=O)NC(=O)N(C)C1=O` (configuration not stated), for which the LC retention time is 9.02 min.

In the case of `CCCCOc1ccc(CC(=O)NO)cc1`, the LC retention time was 9.24 min.

In the case of `CC(C)c1ccc(NC(=O)N(C)C)cc1`, the LC retention time was 8.29 min.

Consider `NS(=O)(=O)c1ccccc1`, for which the LC retention time is 3.92 min.

Regarding `CC12CCC3C(CCC4=CC(=O)CCC43C)C1CCC2=O` (configuration not stated), the LC retention time was 13.1 min.

`NC(=O)N=C(N)N`: the LC retention time is 1.73 min.

For `CC[N+]1([O-])CCCC1CNC(=O)c1cc(S(=O)(=O)CC)c(N)cc1OC` (configuration not stated), the LC retention time is 4.81 min.
